Reference: US12648904B2, “Porous nanocomposite medical implant device” (Lynthera Corporation, priority 2020, dated 2026)

Assay: Fatty acid loading into contact lenses, by weighing the dry lens before and after soaking
Type: physicochemical
Conditions: for Fatty acid loading / Fatty acid by weight of the dried lens: ACUVUE TruEye lens; for Fatty acid loading: soaking concentration 20 mg/mL fatty acid in ethanol; for Fatty acid by weight of the dried lens: 7.5 mg/mL fatty acid in ethanol, 24 hours at 23° C.
Protocol: Two commercial silicone hydrogel contact lenses were tested: ACUVUE TruEye® (46% Water+54% Narafilcon A) and ACUVUE Oasys® (38% Water+62% Senofilcon A). TruEye® is a daily disposable contact lens while Oasys® is an approved contact lens for extended wear. The lenses were rinsed with deionized water and then air-dried before being soaked in 4 mL of 19 mg/mL, 27 mg/mL or 40 mg/mL of oleic acid in ethanol. The soaking duration was 24 hours at room temperature. Following the loading step, the contact lenses were taken out and excess fatty acid-ethanol solution was blotted out from the lens surface. Lenses were washed in deionized water for 1 hour and subsequently air-dried overnight.
The loading amount of OA was determined by weighing the dry lens before and after the fatty acid loading period as shown in FIG. 4. Oleic acid loading has a linear dependency on the concentration of the loading solutions. Furthermore, Oasys® has higher affinity for oleic acid than TruEye® at concentrations between […] and 27 mg/mL. For higher concentrations, the affinity for oleic acid is equivalent for both contact lenses. Therefore, the loading of Oleic acid into lens can be adjusted by this correlation.
1-day ACUVUE Moist® (58% Water+42% Etafi Icon A) are conventional hydrogel commercial lenses that are mostly composed of poly-2-hydroxyethyl methacrylate (pHEMA). Lenses were rinsed with PBS and then air-dried before use. Dry lenses were soaked in 4 mL of 100 mg/mL of oleic acid in a mixture of ethanol and deionized water (75/25 ethanol/water). […] Following the loading step, the contact lenses were taken out and excess fatty acid-ethanol solution was blotted out from the lens surface. Lenses were washed in PBS for 1 hour and then were air-dried overnight. The loading amount of OA was determined by weighing the dry lens before and after the fatty acid loading period.
ACUVUE TruEye® (diopter −3.5) contact lenses were rinsed with deionized. water and then air-dried overnight before use. One batch of contact lenses were soaked in 4 mL of 7.5 mg,/mL of myristic acid in ethanol. Another batch of contact lens were soaked in 4 mL of 7.5 mg/mL of stearic acid in ethanol. A third batch of lenses was used as a control (no fatty acid loading). The soaking duration was 24 hours at 23° C. Following the loading step, the contact lenses were taken out and excess fatty acid-ethanol solution was blotted out from the lens surface. Lenses were washed in deionized water for 1 hour and subsequently air-dried overnight. All contact lenses were optically transparent in the hydrated state. The wt % of fatty add retain by the contact lens was determined by recording the increase in the weight of the dried lens after the soaking and drying procedure. For both stearic and myristic acid, approximately 1.5% ±0.5% by weight of the dried lens was composed of the fatty acid.

| Fatty acid loading | Fatty acid by weight of the dried lens | Maximum oleic acid loading (1-day ACUVUE Moist lens, 100 to 500 mg/mL oleic acid in 75/25 ethanol/water) | SMILES |
| --- | --- | --- | --- |
| 6.2 wt % | – | – | CCCCC/C=C\C/C=C\CCCCCCCC(=O)O [linoleic acid] |
| 6.0 wt % | – | – | CC/C=C\C/C=C\C/C=C\CCCCCCCC(=O)O [α-linolenic acid] |

Second part, the compound before the results:

| SMILES | Fatty acid loading | Fatty acid by weight of the dried lens | Maximum oleic acid loading (1-day ACUVUE Moist lens, 100 to 500 mg/mL oleic acid in 75/25 ethanol/water) |
| --- | --- | --- | --- |
| CCCCCCCCCCCCCC(=O)O [myristic acid, Myristic Acid (Tetradecanoic Acid)] | – | approximately 1.5% | – |
| CCCCCCCC/C=C\CCCCCCCC(=O)O [oleic acid] | 6.1 wt % | – | 2.9 wt. % |
| CCCCCCCCCCCCCCCCCC(=O)O [stearic acid, Stearic Acid (Octadecanoic Acid)] | – | approximately 1.5% | – |
